{"source": "patent US10450316B2", "about": "“Certain protein kinase inhibitor” (Chongqing Fochon Pharmaceutical Co., Ltd., priority 2015, dated 2019)", "key": {"BE(2)-C cell": {"tested_on": "BE(2)-C cell", "assay": "Cell proliferation assay (MTS) in BE(2)-C cells", "type": "cell-based", "details": "Homo sapiens, inhibition of BE(2)-C cell proliferation, 48 h", "procedure,_shortened": "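BE(2)-C cells (3000/well, DMEM + 10% FBS) were treated for 48 h at 37 °C with compound at 1.5–10000 nM in nine concentrations. Viability was measured by MTS (2 h, stopped with SDS) at 490/650 nm, and IC50 was calculated from the dose-response.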"}, "COLO205 xenograft tumors": {"tested_on": "COLO205 xenograft tumors", "assay": "Tumor growth inhibition in COLO205 xenograft tumors", "type": "in vivo", "details": "30 mg/kg", "protocol": "COLO205 cells were cultured with RPMI-1640 medium containing 10% fetal bovine serum (FBS) at 37° C. in 5% CO2 incubator. Logarithmic growth phase cells were collected. COLO205 cells (5×10^6 in 200 μL PBS) were implanted subcutaneously into the left flank region, and tumor growth was monitored. Tumor volume (V) was estimated from the length (l) and width (w) of the tumor using the following formula: V=1/2×l×w^2. Treatment started when average tumor size was 100-150 mm^3. Measuring subcutaneous tumor volume 2 to 3 times every week. Drug efficacy was assessed as Tumor Growth Inhibition (TGI) and Tumor increment rate T/C (%). TGI was defined as (1−T/C)×100%, wherein T/C (%) presented the ratio of the change in mean tumor volume of the treated group and of the control group."}}, "data": [{"smiles": "CN1CCN(Cc2ccc(Nc3ncc(F)c(-c4cc(F)c5nc6n(c5c4)[C@H](C(F)F)CC6)n3)nc2)CC1", "note": "[Example 11, (S)-4-(1-(difluoromethyl)-5-fluoro-2,3-dihydro-1H-benzo[d]pyrrolo[1,2-a]imidazol-7-yl)-5-fluoro-N-(5-((4-methylpiperazin-1-yl)methyl)pyridin-2-yl)pyrimidin-2-amine]", "values": [{"measurement": "IC50", "setting": "BE(2)-C cell", "result": "10 to 100", "unit": "nM"}, {"measurement": "Average Tumor Volume D0", "setting": "COLO205 xenograft tumors; D0, in mm³", "result": "110 ± 3.2"}, {"measurement": "T/C % D21", "setting": "COLO205 xenograft tumors; D21", "result": 28, "unit": "%"}, {"measurement": "TGI % D21", "setting": "COLO205 xenograft tumors; D21", "result": 72, "unit": "%"}, {"measurement": "Average Tumor Volume D21", "setting": "COLO205 xenograft tumors; D21, in mm³", "result": "570 ± 57"}]}, {"smiles": "CCN1C2CCC1CN(Cc1ccc(Nc3ncc(F)c(-c4cc(F)c5nc6n(c5c4)[C@H](C)CC6)n3)nc1)C2", "note": "[Example 106, N-(5-((8-ethyl-3,8-diazabicyclo[3.2.1]octan-3-yl)methyl)pyridin-2-yl)-5-fluoro-4-((R)-5-fluoro-1-methyl-2,3-dihydro-1H-benzo[d]pyrrolo[1,2-a]imidazol-7-yl)pyrimidin-2-amine]", "values": [{"measurement": "IC50", "setting": "BE(2)-C cell", "result": "10 to 100", "unit": "nM"}]}, {"smiles": "CCN1CC2(C1)CN(Cc1ccc(Nc3ncc(F)c(-c4cc(F)c5nc6n(c5c4)C(C)(C)CC6)n3)nc1)C2", "note": "[Example 119, N-(5-((6-ethyl-2,6-diazaspiro[3.3]heptan-2-yl)methyl)pyridin-2-yl)-5-fluoro-4-(5-fluoro-1,1-dimethyl-2,3-dihydro-1H-benzo[d]pyrrolo[1,2-a]imidazol-7-yl)pyrimidin-2-amine]", "values": [{"measurement": "IC50", "setting": "BE(2)-C cell", "result": "10 to 100", "unit": "nM"}]}, {"smiles": "CC1(C)CCc2nc3c(F)cc(-c4nc(Nc5ccc(CN6CC7CCC(C6)N7)cn5)ncc4F)cc3n21", "note": "[Example 129, N-(5-((3,8-diazabicyclo[3.2.1]octan-3-yl)methyl)pyridin-2-yl)-5-fluoro-4-(5-fluoro-1,1-dimethyl-2,3-dihydro-1H-benzo[d]pyrrolo[1,2-a]imidazol-7-yl)pyrimidin-2-amine]", "values": [{"measurement": "IC50", "setting": "BE(2)-C cell", "result": "10 to 100", "unit": "nM"}]}, {"smiles": "CN1CC2CCC(C1)N2Cc1ccc(Nc2ncc(F)c(-c3cc(F)c4nc5n(c4c3)[C@H](C(F)(F)F)CC5)n2)nc1", "note": "[Example 77, 5-fluoro-4-((S)-5-fluoro-1-(trifluoromethyl)-2,3-dihydro-1H-benzo[d]pyrrolo[1,2-a]imidazol-7-yl)-N-(5-((3-methyl-3,8-diazabicyclo[3.2.1]octan-8-yl)methyl)pyridin-2-yl)pyrimidin-2-amine]", "values": [{"measurement": "IC50", "setting": "BE(2)-C cell", "result": "10 to 100", "unit": "nM"}]}, {"smiles": "Fc1cnc(Nc2ccc(CN3CCNCC3)cn2)nc1-c1cc(F)c2nc3n(c2c1)[C@H](C(F)(F)F)CC3", "note": "[Example 16, (S)-5-fluoro-4-(5-fluoro-1-(trifluoromethyl)-2,3-dihydro-1H-benzo[d]pyrrolo[1,2-a]imidazol-7-yl)-N-(5-(piperazin-1-ylmethyl)pyridin-2-yl)pyrimidin-2-amine]", "values": [{"measurement": "IC50", "setting": "BE(2)-C cell", "result": "10 to 100", "unit": "nM"}]}, {"smiles": "FC[C@@H]1CCc2nc3c(F)cc(-c4nc(Nc5ccc(CN6CCC7(CCNCC7)CC6)cn5)ncc4F)cc3n21", "note": "[Example 29, (S)-N-(5-((3,9-diazaspiro[5.5]undecan-3-yl)methyl)pyridin-2-yl)-5-fluoro-4-(5-fluoro-1-(fluoromethyl)-2,3-dihydro-1H-benzo[d]pyrrolo[1,2-a]imidazol-7-yl)pyrimidin-2-amine]", "values": [{"measurement": "IC50", "setting": "BE(2)-C cell", "result": "> 100", "unit": "nM"}]}, {"smiles": "CCN1CC2CN(Cc3ccc(Nc4ncc(F)c(-c5cc(F)c6nc7n(c6c5)[C@H](C(F)F)CC7)n4)nc3)CC2C1", "note": "(stereo partly drawn) [Example 50, 4-((S)-1-(difluoromethyl)-5-fluoro-2,3-dihydro-1H-benzo[d]pyrrolo[1,2-a]imidazol-7-yl)-N-(5-((5-ethylhexahydropyrrolo[3,4-c]pyrrol-2(1H)-yl)methyl)pyridin-2-yl)-5-fluoropyrimidin-2-amine]", "values": [{"measurement": "IC50", "setting": "BE(2)-C cell", "result": "10 to 100", "unit": "nM"}]}, {"smiles": "CC1(C)CCc2nc3c(F)cc(-c4nc(Nc5ccc(CN6CCN7CCC[C@@H]7C6)cn5)ncc4F)cc3n21", "note": "[Example 110, (R)-5-fluoro-4-(5-fluoro-1,1-dimethyl-2,3-dihydro-1H-benzo[d]pyrrolo[1,2-a]imidazol-7-yl)-N-(5-((hexahydropyrrolo[1,2-a]pyrazin-2(1H)-yl)methyl)pyridin-2-yl)pyrimidin-2-amine]", "values": [{"measurement": "IC50", "setting": "BE(2)-C cell", "result": "10 to 100", "unit": "nM"}]}, {"smiles": "NC1C2CN(Cc3ccc(Nc4ncc(F)c(-c5cc(F)c6nc7n(c6c5)C5(CC7)CC5)n4)nc3)CC12", "note": "(stereo not shown) [Example 147, 3-((6-((5-fluoro-4-(5-fluoro-2,3-dihydrospiro [benzo[d]pyrrolo[1,2-a]imidazole-1,1′-cyclo-propan]-7-yl)pyrimidin-2-yl)amino)pyridin-3-yl)methyl)-3-azabicyclo[3.1.0]hexan-6-amine]", "values": [{"measurement": "IC50", "setting": "BE(2)-C cell", "result": "> 1000", "unit": "nM"}]}, {"smiles": "Fc1cnc(Nc2ccc(CN3C[C@@H]4C[C@H]3CN4)cn2)nc1-c1cc(F)c2nc3n(c2c1)C1(CC3)CC1", "note": "[Example 135, N-(5-(((1S,4S)-2,5-diazabicyclo[2.2.1]heptan-2-yl)methyl)pyridin-2-yl)-5-fluoro-4-(5-fluoro-2,3-dihydrospiro[benzo[d]pyrrolo[1,2-a]imidazole-1,1′-cyclopropan]-7-yl)pyrimidin-2-amine]", "values": [{"measurement": "IC50", "setting": "BE(2)-C cell", "result": "> 1000", "unit": "nM"}]}, {"smiles": "Fc1cnc(Nc2ccc(CN3CCN4CCC[C@@H]4C3)cn2)nc1-c1cc(F)c2nc3n(c2c1)[C@H](C(F)(F)F)CC3", "note": "[Example 60, 5-fluoro-4-((S)-5-fluoro-1-(trifluoromethyl)-2,3-dihydro-1H-benzo[d]pyrrolo[1,2-a]imidazol-7-yl)-N-(5-(((R)-hexahydropyrrolo[1,2-a]pyrazin-2(1H)-yl)methyl)pyridin-2-yl)pyrimidin-2-amine]", "values": [{"measurement": "IC50", "setting": "BE(2)-C cell", "result": "10 to 100", "unit": "nM"}]}, {"smiles": "CN1CCN(Cc2cnc(Nc3cc(-c4cc(F)c5nc6n(c5c4)C(C)(C)CC6)c(F)cn3)nc2)CC1", "note": "[Example 165, N-(5-fluoro-4-(5-fluoro-1,1-dimethyl-2,3-dihydro-1H-benzo[d]pyrrolo[1,2-a]imidazol-7-yl)pyridin-2-yl)-5-((4-methylpiperazin-1-yl)methyl)pyrimidin-2-amine]", "values": [{"measurement": "IC50", "setting": "BE(2)-C cell", "result": "> 100", "unit": "nM"}]}, {"smiles": "CN1CCN(Cc2ccc(Nc3ncc(F)c(-c4cc(F)c5nc6n(c5c4)C4(CC6)CC4)n3)nc2)CC1", "note": "[Example 14, 5-fluoro-4-(5-fluoro-2,3-dihydrospiro[benzo[d]pyrrolo[1,2-a]imidazole-1,1′-cyclopropan]-7-yl)-N-(5-((4-methylpiperazin-1-yl)methyl)pyridin-2-yl)pyrimidin-2-amine]", "values": [{"measurement": "IC50", "setting": "BE(2)-C cell", "result": "> 100", "unit": "nM"}]}, {"smiles": "CCN1CC2CCC(C1)N2Cc1ccc(Nc2cc(-c3cc(F)c4nc5n(c4c3)C(C)(C)CC5)c(F)cn2)nc1", "note": "[Example 163, N-(5-((3-ethyl-3,8-diazabicyclo[3.2.1]octan-8-yl)methyl)pyridin-2-yl)-5-fluoro-4-(5-fluoro-1,1-dimethyl-2,3-dihydro-1H-benzo[d]pyrrolo[1,2-a]imidazol-7-yl)pyridin-2-amine]", "values": [{"measurement": "IC50", "setting": "BE(2)-C cell", "result": "> 1000", "unit": "nM"}]}]}
